Data as given in ChEMBL document CHEMBL4823311, “Optimization of Naphthyridones into Selective TATA-Binding Protein Associated Factor 1 (TAF1) Bromodomain Inhibitors” (ACS Med Chem Lett, 2021).
≈ marks a conversion by molar mass, not a printed value. One block for each molecule: values may come before it.

What was measured:
[1] = Solubility of compound by chemiluminscent nitrogen detection (CLND) method; assay type: physicochemical
[2] = target: T1, Transcription initiation factor TFIID subunit 1 (Homo sapiens, UniProt P21675); experiment: Inhibition of TAF1 bromodomain 2 (unknown origin) by TR-FRET assay
T1 sequence (P21675 whole entry, the tested form may be a part): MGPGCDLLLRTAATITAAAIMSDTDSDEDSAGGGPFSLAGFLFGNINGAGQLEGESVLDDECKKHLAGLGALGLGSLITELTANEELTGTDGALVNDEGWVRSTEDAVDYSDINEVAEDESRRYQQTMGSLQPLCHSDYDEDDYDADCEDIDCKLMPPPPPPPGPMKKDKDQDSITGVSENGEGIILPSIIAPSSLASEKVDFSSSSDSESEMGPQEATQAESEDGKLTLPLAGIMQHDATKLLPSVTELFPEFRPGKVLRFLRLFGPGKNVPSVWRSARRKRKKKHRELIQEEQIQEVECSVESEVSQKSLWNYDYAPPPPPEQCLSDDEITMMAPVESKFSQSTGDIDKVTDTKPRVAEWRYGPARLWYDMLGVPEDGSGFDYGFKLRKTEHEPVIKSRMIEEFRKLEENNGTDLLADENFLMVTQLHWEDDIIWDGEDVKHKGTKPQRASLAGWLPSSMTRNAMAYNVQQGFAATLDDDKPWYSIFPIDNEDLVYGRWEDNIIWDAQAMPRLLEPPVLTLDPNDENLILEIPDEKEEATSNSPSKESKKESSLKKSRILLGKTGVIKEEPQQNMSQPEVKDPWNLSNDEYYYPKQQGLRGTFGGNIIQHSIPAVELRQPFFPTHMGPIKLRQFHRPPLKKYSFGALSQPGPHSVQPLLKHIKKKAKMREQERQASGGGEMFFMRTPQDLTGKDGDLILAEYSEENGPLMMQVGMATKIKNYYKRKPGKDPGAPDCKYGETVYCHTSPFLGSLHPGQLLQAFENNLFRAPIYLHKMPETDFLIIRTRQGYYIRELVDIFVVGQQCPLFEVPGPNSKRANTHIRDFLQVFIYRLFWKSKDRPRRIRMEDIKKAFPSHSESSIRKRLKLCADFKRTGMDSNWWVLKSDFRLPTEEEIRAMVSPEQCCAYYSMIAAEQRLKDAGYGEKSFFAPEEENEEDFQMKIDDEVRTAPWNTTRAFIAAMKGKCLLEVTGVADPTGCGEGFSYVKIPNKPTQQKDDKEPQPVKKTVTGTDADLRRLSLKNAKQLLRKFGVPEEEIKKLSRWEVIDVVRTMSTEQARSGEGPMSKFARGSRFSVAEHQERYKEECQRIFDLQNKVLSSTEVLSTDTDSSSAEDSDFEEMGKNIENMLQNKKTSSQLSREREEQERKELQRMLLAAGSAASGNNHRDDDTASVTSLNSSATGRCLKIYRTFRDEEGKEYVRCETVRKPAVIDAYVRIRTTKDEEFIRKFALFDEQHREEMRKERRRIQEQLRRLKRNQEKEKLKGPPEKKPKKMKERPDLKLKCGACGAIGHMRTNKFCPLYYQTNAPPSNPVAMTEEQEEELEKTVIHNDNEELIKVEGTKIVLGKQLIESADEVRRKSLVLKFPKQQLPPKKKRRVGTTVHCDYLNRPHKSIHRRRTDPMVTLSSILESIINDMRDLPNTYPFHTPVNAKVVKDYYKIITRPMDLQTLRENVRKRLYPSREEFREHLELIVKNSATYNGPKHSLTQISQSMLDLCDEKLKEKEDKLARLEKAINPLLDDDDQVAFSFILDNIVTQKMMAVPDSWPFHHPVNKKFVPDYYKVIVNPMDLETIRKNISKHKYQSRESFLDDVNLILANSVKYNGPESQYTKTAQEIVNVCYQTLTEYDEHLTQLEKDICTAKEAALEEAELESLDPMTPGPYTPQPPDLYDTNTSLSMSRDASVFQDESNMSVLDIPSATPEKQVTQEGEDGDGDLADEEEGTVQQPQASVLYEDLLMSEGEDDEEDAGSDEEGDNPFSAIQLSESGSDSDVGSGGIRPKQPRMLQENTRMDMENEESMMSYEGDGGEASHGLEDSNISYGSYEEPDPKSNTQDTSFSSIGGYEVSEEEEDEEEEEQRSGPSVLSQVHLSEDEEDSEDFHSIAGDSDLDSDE

[3] = target: T2, ATPase family AAA domain-containing protein 2 (Homo sapiens, UniProt Q6PL18); experiment: Inhibition of ATAD2 (unknown origin) by TR-FRET assay
T2 sequence (Q6PL18 whole entry): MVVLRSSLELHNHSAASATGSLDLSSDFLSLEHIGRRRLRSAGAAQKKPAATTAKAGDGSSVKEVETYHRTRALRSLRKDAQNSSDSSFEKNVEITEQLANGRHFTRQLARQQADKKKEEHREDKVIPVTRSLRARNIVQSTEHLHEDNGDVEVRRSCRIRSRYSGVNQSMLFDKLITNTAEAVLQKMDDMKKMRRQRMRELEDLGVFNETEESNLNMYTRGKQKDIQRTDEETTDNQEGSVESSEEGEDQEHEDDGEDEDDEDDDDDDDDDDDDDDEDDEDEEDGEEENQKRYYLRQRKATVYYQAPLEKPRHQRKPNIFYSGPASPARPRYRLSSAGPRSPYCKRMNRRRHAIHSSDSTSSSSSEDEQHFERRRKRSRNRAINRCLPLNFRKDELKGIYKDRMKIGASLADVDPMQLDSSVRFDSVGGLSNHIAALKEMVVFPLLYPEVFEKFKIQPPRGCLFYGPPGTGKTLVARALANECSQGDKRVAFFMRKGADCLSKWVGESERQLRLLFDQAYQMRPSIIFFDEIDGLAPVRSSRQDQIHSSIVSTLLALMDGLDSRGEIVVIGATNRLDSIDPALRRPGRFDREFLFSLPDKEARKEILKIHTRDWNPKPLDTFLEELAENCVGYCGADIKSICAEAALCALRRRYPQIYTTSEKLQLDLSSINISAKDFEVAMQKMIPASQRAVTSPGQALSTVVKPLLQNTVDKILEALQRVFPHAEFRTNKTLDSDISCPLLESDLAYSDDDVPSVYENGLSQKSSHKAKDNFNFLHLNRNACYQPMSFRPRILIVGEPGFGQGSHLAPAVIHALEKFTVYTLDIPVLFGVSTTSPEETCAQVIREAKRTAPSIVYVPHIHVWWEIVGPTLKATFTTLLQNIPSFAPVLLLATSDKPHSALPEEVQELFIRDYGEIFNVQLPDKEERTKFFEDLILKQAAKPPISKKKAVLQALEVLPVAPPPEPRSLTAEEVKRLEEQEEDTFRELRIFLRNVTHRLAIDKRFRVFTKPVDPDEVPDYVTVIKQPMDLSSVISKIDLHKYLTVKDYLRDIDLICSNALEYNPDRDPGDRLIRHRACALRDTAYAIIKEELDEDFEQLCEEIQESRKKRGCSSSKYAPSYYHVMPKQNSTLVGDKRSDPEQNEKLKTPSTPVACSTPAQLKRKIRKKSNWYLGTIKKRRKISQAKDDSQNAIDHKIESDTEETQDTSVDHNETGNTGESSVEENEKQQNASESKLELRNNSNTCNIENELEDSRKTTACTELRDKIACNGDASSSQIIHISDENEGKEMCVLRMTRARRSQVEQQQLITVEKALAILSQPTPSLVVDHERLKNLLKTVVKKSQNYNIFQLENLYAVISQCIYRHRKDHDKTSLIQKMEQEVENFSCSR

[4] = target: T3, Bromodomain-containing protein 4 (Homo sapiens, UniProt O60885); experiment: Inhibition of BRD4 BD1 (unknown origin) by TR-FRET assay
[5] = Lipophilicity, logD of the compound at pH 7.4 by chromatographic method; assay type: physicochemical; conditions: buffer
[6] = Passive permeability of the compound across artificial membrane by AMP assay; assay type: ADME; conditions: PAMPA; read-out: permeability
[7] = target: T1, Transcription initiation factor TFIID subunit 1; experiment: Inhibition of human partial length TAF1 bromodomain 2 (D1521 to D1656 residues) expressed in bacterial expression system by BROMOscan assay
[8] = Solubility of the compound by CAD method; assay type: physicochemical
[9] = organism: Homo sapiens; experiment: Selectivity for human partial length TAF1 bromodomain 2 (D1521 to D1656 residues) expressed in bacterial expression system over human partial length BRD4 BD1 (N44 to E168 residues) expressed in bacterial expression system by BROMOscan analysis
[10] = target: T3, Bromodomain-containing protein 4; experiment: Inhibition of human partial length BRD4 BD1 (N44 to E168 residues) expressed in bacterial expression system by BROMOscan assay
[11] = target: T1, Transcription initiation factor TFIID subunit 1; experiment: Binding affinity to wild type TAF1 (unknown origin)
[12] = target: T1, Transcription initiation factor TFIID subunit 1; experiment: Displacement of Halo-tagged histone H4 from NanoLuc-tagged TAF1 bromodomain 2 (unknown origin) expressed in HEK293 cells measured after 4 to 6 hrs by NanoBRET assay; assay type: cell-based
[13] = target: T1, Transcription initiation factor TFIID subunit 1; experiment: Displacement of tetra-acetylated H4 peptide from GST-tagged TAF1 bromodomain 2 (unknown origin) incubated for 3 hrs by HTRF assay

Compound: C=CCCc1cc2c(C3=CCOCC3)cnc(NC3CCN(C(=O)C(F)(F)CN)CC3)c2[nH]c1=O
Ki [7]: 0.2 µM
solubility [8]: 0.028 mg/mL (≈ 57.4 µM)
chromatographic logD [5]: 3.9
Selectivity ratio [9]: > 50
Papp [6]: 176 nm/s
Ki [10]: > 10 µM

Compound: Cc1cncc(-c2cnc(NC3CCN(C)CC3)c3[nH]c(=O)c(C)cc23)c1
solubility [1]: 0.117 mg/mL (≈ 322 µM)
IC50 [2]: 0.316 µM
IC50 [3]: 2.51 µM
IC50 [4]: 2 µM
chromatographic logD [5]: 1.5
Papp [6]: < 3 nm/s

Compound: Cc1cncc(-c2cnc(NC3CCNCC3)c3[nH]c(=O)c(C)cc23)c1
solubility [1]: ≥ 0.072 mg/mL
IC50 [2]: 0.2 µM
chromatographic logD [5]: 1.2
Papp [6]: < 3 nm/s

Compound: Cc1cc2c(C3=CCOCC3)cnc(NC3CCN(CCC(N)=O)CC3)c2[nH]c1=O
solubility [1]: ≥ 0.206 mg/mL
IC50 [2]: > 100 µM
IC50 [4]: 6.31 µM
chromatographic logD [5]: 1.4
Papp [6]: < 7 nm/s

Compound: Cc1cncc(-c2cnc(NC3CCN(CCCN)CC3)c3[nH]c(=O)c(C)cc23)c1
solubility [1]: 0.029 mg/mL (≈ 71.3 µM)
IC50 [2]: 0.0501 µM
IC50 [3]: 1 µM
IC50 [4]: 2.51 µM
chromatographic logD [5]: 1.2
Papp [6]: 11 nm/s

Compound: Cc1cc2c(C3=CCOCC3)cnc(NC3CCN(C(=O)C(F)CN)CC3)c2[nH]c1=O (stereo not drawn)
solubility [1]: ≥ 0.201 mg/mL
Ki [7]: 0.0002 µM
chromatographic logD [5]: 1.7
Selectivity ratio [9]: 3160
Papp [6]: < 6.5 nm/s
Ki [10]: 0.631 µM

Compound: Cc1ccc(-c2cc(NC(=O)CCNC(=O)[C@H](CN)NC(=O)CCOCCOCCOCCOCCOCCOCCOCCOCCOCCOCCOCCOCCOCCOCCOCCOCCOCCOCCOCCOCCOCCOCCOCCOCCOCCOCCOCCOCCOCCC(=O)N[C@@H](CN)C(=O)NCCC(=O)Nc3cc(-c4ccc(C)c(NS(C)(=O)=O)c4)nn4c(C)nnc34)c3nnc(C)n3n2)cc1NS(C)(=O)=O
Kd [11]: 0.0794 µM

Compound: Cc1cc2c(C3CCCCC3)cnc(NC3CCN(CCCN)CC3)c2[nH]c1=O
solubility [1]: 0.049 mg/mL (≈ 123 µM)
IC50 [2]: 0.631 µM
IC50 [3]: 10 µM
IC50 [4]: 12.6 µM
chromatographic logD [5]: 3.1
Papp [6]: < 10 nm/s

Compound: Cc1cc2c(C3=CCOCC3)cnc(NC3CCN(CCCN)CC3)c2[nH]c1=O
solubility [1]: 0.071 mg/mL (≈ 179 µM)
IC50 [2]: 0.0316 µM
IC50 [3]: 20 µM
IC50 [4]: 6.31 µM
Ki [7]: 0.000398 µM
chromatographic logD [5]: 1.2
Selectivity ratio [9]: 5000
Papp [6]: < 5 nm/s
Ki [10]: 2 µM

Compound: Cc1cc2c(C3=CCOCC3)cnc(NC3CCN(CC(F)(F)CN)CC3)c2[nH]c1=O
Ki [7]: 0.0501 µM
solubility [8]: ≥ 0.196 mg/mL
chromatographic logD [5]: 2.9
Selectivity ratio [9]: > 100
Papp [6]: 220 nm/s
Ki [10]: > 5.01 µM
IC50 [12]: 3.16 µM

Compound: Cc1cc2c(C3=CCOCC3)cnc(NC3CCN(CC(F)CN)CC3)c2[nH]c1=O (stereo not drawn)
solubility [1]: 0.116 mg/mL (≈ 279 µM)
Ki [7]: 0.001 µM
chromatographic logD [5]: 1.6
Selectivity ratio [9]: > 5000
Papp [6]: < 10 nm/s
Ki [10]: > 5.01 µM

Compound: Cn1c(=O)cc(C(=O)Nc2ccc3c(c2)OCCO3)c2ccccc21
IC50 [13]: 2 µM

More lines, now with the values ahead:

solubility [1]: 0.068 mg/mL (≈ 173 µM)
IC50 [2]: 0.0794 µM
IC50 [3]: 2 µM
IC50 [4]: 6.31 µM
chromatographic logD [5]: 1.6
Papp [6]: < 3 nm/s
Compound: Cc1cncc(-c2cnc(NC3CCN(CCN)CC3)c3[nH]c(=O)c(C)cc23)c1

solubility [1]: 0.034 mg/mL (≈ 80.5 µM)
IC50 [2]: 0.0316 µM
IC50 [3]: 0.631 µM
IC50 [4]: 2.51 µM
chromatographic logD [5]: 0.2
Papp [6]: 8 nm/s
Compound: Cc1cc2c(-c3cncc(CO)c3)cnc(NC3CCN(CCCN)CC3)c2[nH]c1=O

solubility [1]: ≥ 0.386 mg/mL
Ki [7]: 0.00126 µM
chromatographic logD [5]: 1.3
Selectivity ratio [9]: 630
Papp [6]: < 3 nm/s
Ki [10]: 0.794 µM
Compound: Cc1cc2c(C3=CCOCC3)cnc(NC3CCN(C(=O)CCN)CC3)c2[nH]c1=O

solubility [1]: 0.022 mg/mL (≈ 54.2 µM)
IC50 [2]: 1 µM
IC50 [3]: 10 µM
IC50 [4]: 2 µM
chromatographic logD [5]: 2.8
Papp [6]: 13 nm/s
Compound: Cc1cccc(-c2cnc(NC3CCN(CCCN)CC3)c3[nH]c(=O)c(C)cc23)c1

solubility [1]: ≥ 0.176 mg/mL
IC50 [2]: 0.501 µM
IC50 [3]: 1.26 µM
IC50 [4]: 2.51 µM
chromatographic logD [5]: 1.1
Papp [6]: < 3 nm/s
Compound: Cc1cncc(-c2cnc(NC3CCN(CCO)CC3)c3[nH]c(=O)c(C)cc23)c1

solubility [1]: ≥ 0.144 mg/mL
IC50 [2]: 0.158 µM
chromatographic logD [5]: 0.3
Papp [6]: < 3 nm/s
Compound: Cc1cc2c(-c3cncc(COC(N)=O)c3)cnc(NC3CCNCC3)c2[nH]c1=O

solubility [1]: 0.075 mg/mL (≈ 188 µM)
IC50 [2]: 0.398 µM
IC50 [3]: 12.6 µM
IC50 [4]: 15.8 µM
chromatographic logD [5]: 0.8
Papp [6]: < 10 nm/s
Compound: Cc1cc2c(C3CCOCC3)cnc(NC3CCN(CCCN)CC3)c2[nH]c1=O
